The values below come from US20030171408A1, “Therapeutic method of delivering a medicament to avoid irritating effects on membranes of user” (priority 2002, published 2003).

The conditions of data set [1]: cited from earlier work.
The conditions of data set [2]: metered nasal spray 0.4 mg nicotine equivalent. Here is the method:
A subject who was an addicted smoker was provided a metered nasal spray delivering 0.4 mg of nicotine equivalent in form of nicotine diacesulfamate. The nicotine salt was dissolved in water without any other additive ingredients.

The conditions of data set [3]: oral inhaler, water solution. How it is done: A subject is administered nicotine by means of an oral inhaler. The nicotine is prepared as the diacesulfamate and is prepared in water solution.
The conditions of data set [4]: powder nasal spray, encapsulated in starch microspheres. How it is done: A subject is administered nicotine by means of a powder nasal spray. The nicotine is prepared as the diacesulfamate and is encapsulated in starch microspheres.
The conditions of data set [5]: nasal, single doses of one mg, in man; cited from earlier work.

Consider `CC1=CC(=O)NS(=O)(=O)O1` [Acesulfamic acid, 6-Methyl-1,2,3-Oxathiazin-4(3H)1,2,2-dioxide H], for which, in data set [1] (alcohol and non-polar solvents), the “solubility in alcohol and non-polar solvents” value is “soluble”. For the same molecule, the solubility in water result in data set [1] (water) is on record as “only sparingly soluble”.

For `CC1=CC(=O)NS(=O)(=O)O1.CC1=CC(=O)NS(=O)(=O)O1.CN1CCC[C@H]1c1cccnc1` [nicotine diacesulfamate], in data set [2] (addicted smoker, dissolved in water, once in each nostril), the “relief from desire to smoke” value is listed as “relief from desire to smoke within two minutes”. For the same molecule, the “taste and feelings in the nostril” value in data set [2] (in water) was “not unpleasant, but distinctive”. The “irritation to nasal mucosa, throat or lungs” value in data set [2] (in water, once in each nostril) is listed as “No report was made of any irritation to nasal mucosa, nor to the throat or lungs”. For the same molecule, in data set [3], the “burning feeling in buccal area, throat or lungs” value was “No burning feeling is noted” and the “relief from craving to smoke” value is listed as “relief from craving to smoke soon after use”. In data set [4], the “burning feeling on administration” value was “No burning feeling is noted” and the “relief from cravings to smoke” value is “relief from the cravings to smoke soon after use”.

In the case of `CN1CCCC1c1cccnc1` (stereo not shown) [nicotine], in data set [5], the “time to maximum concentration” value is at most 10 min.
